# Reference: patent US20240335462A1, “SULFUR/PHOSPHORUS-CONTAINING ARYL COMPOUND AND APPLICATION THEREOF” (MEDSHINE DISCOVERY INC., priority 2021, published 2024)
# Marks after values point to notes of the source that are not given here.
# Tested on: IL-23-induced psoriasis-like skin lesions
# Assay: Mouse psoriasis-like model induced by IL-23
# Type: in vivo, C57BL/6 mice
# Set-up: Total score for epidermal hyperplasia of ear pinnae / AUC of total score for epidermal hyperplasia of ear pinnae / Pathological score: Degree of keratinization / Pathological score: Epidermal thickness / Pathological score: Dermal thickness / Pathological score: Inflammatory cell infiltration / Comprehensive pathological score: scale not given here
# Conditions: for AUC of total score for epidermal hyperplasia of ear pinnae: Day 0 to Day 8; for Comprehensive pathological score / Pathological score: Degree of keratinization / Pathological score: Dermal thickness / Pathological score: Epidermal thickness / Pathological score: Inflammatory cell infiltration: right ear H&E sections
# Source text: The purpose of this experiment was to evaluate the prophylactic and therapeutic effect of the test substance on IL-23-induced psoriasis-like skin lesions in mice by intradermal injection of IL-23 into the ear pinnae in a psoriasis-like skin lesion model.
# Female C57BL/6 mice of qualified body weight were randomly divided into groups, with 6 mice per group. The grouping and administration information was as follows. The groups were: blank control group, model group, positive control Ustekinumab (5 mg/kg) group, WX-011A hydrochloride (30, 50 mg/kg) group, and WX-020 sulfate (30, 50 mg/kg) group. Except for the blank control group, the animals in the other groups received an intradermal injection of IL-23 (3 μg/10 μL/mouse/day, QD) in the right ear for 8 consecutive days (Day 0 to Day 7). The blank control group received an intradermal injection of an equal volume of saline solution (10 μL/mouse/day, QD) in the right ear for 8 consecutive days (Day 0 to Day 7). Concurrent with model induction, the solvent or test drug was orally administered twice a day (Bid) at 6-hour intervals for 8 consecutive days (Day 0 to Day 7). The positive control was subcutaneously injected on Day 0 and Day 3 (a total of 2 doses). During the administration period, the body weight of the animals was monitored every two days. On Day 0, Day 2, Day 4, Day 6 (all before IL-23 injection), and Day 8, the thickness of the right ear of the mice was measured, and the appearance of the ear pinnae was observed and scored.
# The compounds were all prepared into a clear solution with 10% DMSO+[…] as a solvent for PO (oral gavage) administration. Administration volume parameters: 10 mL/kg based on the body weight of the mice.
# After grouping, IL-23 (3 μg/10 μL/mouse/day, QD) was injected intradermally into the right ears of the mice for 8 consecutive days (Day 0 to Day 7). Measurements of the thickness of the right ear and observations and scoring of the appearance of the ear pinnae were performed on Day 0, Day 2, Day 4, Day 6 (all before IL-23 injection), and Day 8. At the end of the experiment (Day 8), the left ear tissues of the mice from groups G4 to G10 (3 animals per group at each time point) were collected. The right ear, which had been modeled, was excised, an 8 mm ear punch was taken along the edge of the pinna, and its weight was measured. The excised right ear tissues were fixed in formalin for histopathological examination (H&E staining).
# Concurrent with model induction, corresponding drug treatment was given for administration. Except for the positive control drug (Ustekinumab), which was subcutaneously injected on Day 0 and Day 3 (once a day), control and test drugs for each dose group were orally administered by gavage twice a day at 6-hour intervals for 8 consecutive days (Day 0 to Day 7).
# The pathological scoring of mouse ear tissue sections was conducted according to the criteria in Table 33.
# The experimental data are represented as Mean±SD; statistical analysis was performed using IBM SPSS Statistics 21, with p<0.05 considered to indicate a statistically significant difference between the two groups. The effect of the test substance on the thickness of mouse ears in the IL-23 induced mouse pinna epidermal hyperplasia model is shown in Table 34. The effect of the test substance on the total score and AUC for […] induced mouse pinna epidermal hyperplasia is shown in Table 35.
SMILES,"Ear thickness (mm) (30 mg/kg PO BID, Day 0)","Total score for epidermal hyperplasia of ear pinnae (30 mg/kg PO BID, Day 0)",AUC of total score for epidermal hyperplasia of ear pinnae (30 mg/kg PO BID),"Ear thickness (mm) (30 mg/kg PO BID, Day 2)","Total score for epidermal hyperplasia of ear pinnae (30 mg/kg PO BID, Day 2)","Ear thickness (mm) (30 mg/kg PO BID, Day 4)","Total score for epidermal hyperplasia of ear pinnae (30 mg/kg PO BID, Day 4)","Ear thickness (mm) (30 mg/kg PO BID, Day 6)","Total score for epidermal hyperplasia of ear pinnae (30 mg/kg PO BID, Day 6)","Ear thickness (mm) (30 mg/kg PO BID, Day 8)","Total score for epidermal hyperplasia of ear pinnae (30 mg/kg PO BID, Day 8)",Comprehensive pathological score (30 mg/kg PO BID),Pathological score: Degree of keratinization (30 mg/kg PO BID),Pathological score: Dermal thickness (30 mg/kg PO BID),Pathological score: Epidermal thickness (30 mg/kg PO BID),Pathological score: Inflammatory cell infiltration (30 mg/kg PO BID),"Ear thickness (mm) (50 mg/kg PO BID, Day 0)","Total score for epidermal hyperplasia of ear pinnae (50 mg/kg PO BID, Day 0)",AUC of total score for epidermal hyperplasia of ear pinnae (50 mg/kg PO BID),"Ear thickness (mm) (50 mg/kg PO BID, Day 2)",further results
CNC(=O)c1cnc(NC(=O)C2CC2)cc1Nc1cccc(-c2ccc(S(=O)(=O)C(C)C)cn2)c1OC.O=S(=O)(O)O [Sulfate of WX-020],0.197 mm,0.00,7.67,0.283 mm,0.00,0.311 mm,0.50*,0.351** mm,2.5,0.343^p=0.082 mm,1.67*,4.17**,0.83**,1.33,0.83**,1.17**,0.195 mm,0.00,5.00*,0.289 mm,"Total score for epidermal hyperplasia of ear pinnae (50 mg/kg PO BID, Day 2): 0.00; Ear thickness (mm) (50 mg/kg PO BID, Day 4): 0.303* mm; Total score for epidermal hyperplasia of ear pinnae (50 mg/kg PO BID, Day 4): 0.50*; Ear thickness (mm) (50 mg/kg PO BID, Day 6): 0.311** mm; Total score for epidermal hyperplasia of ear pinnae (50 mg/kg PO BID, Day 6): 1.33*; Ear thickness (mm) (50 mg/kg PO BID, Day 8): 0.317** mm; Total score for epidermal hyperplasia of ear pinnae (50 mg/kg PO BID, Day 8): 1.33**; Comprehensive pathological score (50 mg/kg PO BID): 2.17**; Pathological score: Degree of keratinization (50 mg/kg PO BID): 0.33**; Pathological score: Dermal thickness (50 mg/kg PO BID): 0.50; Pathological score: Epidermal thickness (50 mg/kg PO BID): 0.67**; Pathological score: Inflammatory cell infiltration (50 mg/kg PO BID): 0.67**"
"CNC(=O)c1nnc(NC(=O)C2CC2)cc1Nc1cccc(-c2ncc(S(=N)(=O)C(C)C)cn2)c1OC.Cl (single isomer, unassigned) [Hydrochloride of WX-011A]",0.199 mm,0.00,3.17**,0.274* mm,0.00,0.299* mm,0.33*,0.297** mm,0.67**,0.301** mm,1.17**,1.17**,0.17**,0.17,0.67**,0.17**,0.197 mm,0.00,2.67**,0.279^p=0.081 mm,"Total score for epidermal hyperplasia of ear pinnae (50 mg/kg PO BID, Day 2): 0.00; Ear thickness (mm) (50 mg/kg PO BID, Day 4): 0.291 * mm; Total score for epidermal hyperplasia of ear pinnae (50 mg/kg PO BID, Day 4): 0.17**; Ear thickness (mm) (50 mg/kg PO BID, Day 6): 0.299** mm; Total score for epidermal hyperplasia of ear pinnae (50 mg/kg PO BID, Day 6): 0.67**; Ear thickness (mm) (50 mg/kg PO BID, Day 8): 0.300** mm; Total score for epidermal hyperplasia of ear pinnae (50 mg/kg PO BID, Day 8): 1.00*; Comprehensive pathological score (50 mg/kg PO BID): 1.83**; Pathological score: Degree of keratinization (50 mg/kg PO BID): 0.33**; Pathological score: Dermal thickness (50 mg/kg PO BID): 0.50; Pathological score: Epidermal thickness (50 mg/kg PO BID): 0.50**; Pathological score: Inflammatory cell infiltration (50 mg/kg PO BID): 0.50**"
